Assays:
[1] = tested on: mobilized peripheral blood-derived CD34+ cells; assay: Flow cytometry detection of HSC stemness markers, comparison with UM171 and SR1; format: cell-based, human; details: FIG. 5A; 1 μM; 8 days
Procedure: According to the solubility and required solvent indicated in the instructions of the small molecule inhibitor (see Table 1 for the Cat. number of the small molecule inhibitor), the preparation of the small molecule inhibitor stock solution was carried out. Next, the hematopoietic stem cell medium was prepared: SFEM II medium (stem cell, Cat. number: 09655)+50 ng/ml growth factor Flt-3L (PeProtech, Cat. number: 300-100UG)+50 ng/ml growth factor SCF (PeProtech, Cat. number): 300-07-100UG)+50 ng/ml growth factor TPO (PeProtech, Cat. number: 300-18-100UG)+10 ng/ml interleukin IL-6 (PeProtech, Cat. number: 200-06-20UG)+1% bispecific antibody (HyClone, Cat. No.: sv30010). According to the set concentration gradient of the small molecule inhibitor, the stock solution and the basal medium were used to prepare the medium containing different concentrations of the small molecule inhibitor.
First, the prepared medium was added to a 24-well plate (Corning, Cat. number: 3473), 950 μl per well, and placing it in a carbon dioxide incubator (Thermo, model: 3111) to preheat; resuspending the spare umbilical cord Blood-derived HSCs of Example 1 with SFEM 11+50 ng/ml Flt-3L+50 ng/ml SCF+50 ng/ml TPO+10 ng/ml IL-6+1% bispecific antibody, calculating the medium volume to be added according to 50 μl cell suspension per well and 2*10^5/m1 cell density per well. For example, when the final volume of the cell culture solution per well was 1 ml, the total number of cells per well was 2*10^5 cells calculated according to the cell density per well, and the density of the […] of cell suspension supplemented to each well is 4*10^6/ml. The density of the spare HSCs of Example 1 was adjusted to the calculated density of the cell suspension, and adding it; taking out the preheated medium from the incubator, adding 50 μl of the cell suspension to each well, and after mixing, using the microscope (OLYMPUS, model: CKX53) to observe the cells state, and then putting it into an incubator for culturing.
20 μL of cells cultured for 6-8 days (D6-D8) in the above Example 2 was sampled for counting, taking out a suspension of 2*10^5 cells into a 1.5 ml centrifuge tube according to the counting result; centrifuging at 400 g for 5 min, discarding the supernatant. 100 μL of PBS (phosphate-buffered saline solution, HyClone, Cat. number: SH30256.01) containing 1% HSA (human serum albumin, Guangdong Shuanglin, Cat. number: S10970069) was taken, resuspending the cells, and vortexing to mix well for later use. Then, the cell sample in the control was collected. The number of cells and the collection method were the same as those of the sample cells to be tested. The controls were setting as the NC group and the ISO group respectively, selecting the cells from any sample or mixed cells of the samples to be tested in this batch of experiments, depending on the number of cells.
According to Table 3 above, the antibodies were added to the cell suspensions of the above-mentioned cell samples to be tested and control cell samples according to groups; vortexing to mix and incubating at room temperature for 15 min in the dark. After 15-min incubation, 1 ml of PBS containing 1% HSA was added to each test sample, mixing well, centrifuging at 400 g for 5 min at room temperature. After centrifugation, the supernatant was discarded, and the cells were resuspended in 100 μL of PBS containing 1% HSA for each test sample. Samples were stored at room temperature away from light before testing. […]

[2] = tested on: umbilical cord blood-derived CD34+ cells; assay: In vivo transplantation of in vitro cultured CD34+ cells into irradiated immunodeficient NPG mice; details: FIG. 8A, cells cultured with 1 μM AG1296 (SR1 5 μM), week 18 after transplantation
Procedure: On the umbilical cord blood-derived CD34+ cells sorted in Example 1, the effects of the screened small molecule inhibitor AG1296 and the inhibitor SR1 reported in the literature on the in vivo hematopoietic system reconstitution ability was compared.
Preparation of cell medium: SFEM II+100 ng/ml Flt-3L+100 ng/ml SCF+100 ng/ml TPO+20 ng/ml IL-6+1% bispecific antibody. Cat. numbers of the medium, growth factor, bispecific antibody, etc. were as described in Example 2. According to the groups set in Table 4, different small molecule inhibitors were added.
The prepared cell medium was added to a 24-well plate, 950 μl per well, and placing it in a carbon dioxide incubator to preheat; using SFEMII+100 ng/ml Flt-3L+100 ng/ml SCF+100 ng/ml TPO+20 ng/ml IL-6+1% bispecific antibody to resuspend the spare umbilical cord blood-derived HSCs of Example 1. The medium volume required to resuspend the cells was calculated according to 50 μl of cell suspension was added to each well, and 0.28*10^5/ml cell density per well was; taking out the preheated medium from the incubator, adding 50 μl of resuspended cell suspension to each well, mixing well, observing the cell state under a microscope, and then putting them into the incubator for culture. […]
The proportions of human CD45, human CD19, human CD3, human CD33 and human CD56 in mouse bone marrow cells were detected by flow cytometry. […]

## COc1cc2ncc(-c3ccccc3)nc2cc1OC [AG1296]
[1]
  maintaining the proportion of CD34+, CD34+CD90+, and CD34+CD90+CD45RA- cells, vs Mock, UM171 and lower AG1296 concentrations: significantly more effective than Mock group, UM171 group, AG1296 (500 nM) group and AG1296 (700 nM) group
  maintaining the proportion of CD34+, CD34+CD90+, and CD34+CD90+CD45RA- cells, vs SR1 group: not as good as the SR1 group
  proportion of LT-HSCs relative to AG1296 (500 nM) group and AG1296 (700 nM) group: about 1 time
  proportion of LT-HSCs relative to Mock group and UM171 group: about 2 times
  proportion of LT-HSCs, vs SR1 group: not as good as SR1 group
[2]
  bone marrow transplantation efficiency (proportion of human CD45+ cells in mouse bone marrow cells): significantly higher than that of the Mock group and the SR1 group

Reference: patent US20240058387A1, “CULTURE MEDIUM COMPOSITION FOR AMPLIFYING AND MAINTAINING SELF-RENEWAL CAPACITY AND DIFFERENTIATION POTENTIAL OF HSCS AND APPLICATION THEREOF” (EDIGENE (GUANGZHOU) INC., priority 2020, published 2024)
